Values quoted from earlier work, collected in patent US20260263483A1, “LOW DOSE THERAPEUTIC SUPPLEMENT TO MODULATE CYTOKINES” (VIRBAC CORPORATION, priority 2023, published 2026).
Read-outs that look alike come from different tables or passages of the source.

Assays:
[1] = system: hepatic stellate cells (HSCs)
diabetic rats [2] = details: 60 mg/kg p.o., five weeks
TGF-β1 = details: Balb/c 3T3 cells
[3] = rats, administrated orally
diabetic rats [4] = system: diabetic rats
Wistar albino rats = details: gentamicin-induced renal damage, oral 2, 5 and 10 mg/kg in 14% DMSO

## C=C(C)[C@@H]1CC[C@]2(CO)CC[C@]3(C)[C@H](CC[C@@H]4[C@@]5(C)CC[C@H](O)C(C)(C)[C@@H]5CC[C@]43C)[C@@H]12 [betulin]
[1]
  ethanol-induced activation of hepatic stellate cells: inhibited

## CC1(C)CC[C@]2(C(=O)O)CC[C@]3(C)C(=CC[C@@H]4[C@@]5(C)CC[C@H](O)C(C)(C)[C@@H]5CC[C@]43C)[C@@H]2C1 [oleanolic acid]
Diabetic rats [2]
  kidney function: ameliorates kidney function
Silicotic rats
  expression of cytokines and collagen: decrease the expression of cytokines and collagen

## C[C@H]1[C@H](C)CC[C@]2(C(=O)O)CC[C@]3(C)C(=CC[C@@H]4[C@@]5(C)CC[C@H](O)C(C)(C)C5CC[C@]43C)[C@H]12 (some centres unmarked) [ursolic acid]
TGF-β1
  concentration that inhibits the specific binding of TGF-β 1 by 50%: 3.0 µg/mL
[3]
  ingested ursolic acid recovered in plasma: about 0.6%
Diabetic rats [4]; high-dose, 50 mg/kg
  protective effects on diabetic rats: significant protective effects
Diabetic rats [4]; low-dose, 25 mg/kg
  protective effects on diabetic rats: significant protective effects
Wistar albino rats
  reno-protective effect: reno-protective effect
